Results reported in paper PMC9030166, “Natural Phaeosphaeride A Derivatives Overcome Drug Resistance of Tumor Cells and Modulate Signaling Pathways” (Pharmaceuticals, 2022).

Columns and labels:
[1] = system: HEK293; test: MTT cytotoxicity, human embryonic kidney cells HEK293; assay type: cell-based; details: 48 h
Source text: (§1) Cell cultures used in the work: adhesive cultures HBL-100 cells (cells of a normal mammary gland epithelium, immortalized by the SV40 virus and acquired tumorigenicity); MCF-7 breast cancer cells; PC-3 prostate adenocarcinoma cells; HCT-116 colorectal cancer cells; non-small cell lung cancer cells A549; human embryonic kidney cells HEK293; suspension cultures (NCI-H929 and RPMI8226 multiple myeloma cells), K562 chronic myeloid leukemia cells; THP-1 acute monocytic leukemia cells; and Jurkat acute T-cell leukemia cells. We also used several primary cultures of soft tissue sarcomas at 3–4passeges, kindly provided by T.I. Fetisov (The Ethics Committee of N.N. Blokhin NMRCO, protocol code 18-28-09095 and date of approval 28 September 2018).
(§2) Cells MCF-7, PC-3, A549, and HCT-116, and primary cultures of STSwere seeded in 96-well plates, 6 × 10^3 cells per well in 90 μL of culture medium. Suspension cultures were seeded at a concentration of 25 × 10^3 cells per well in 135 μL of medium. The test substances were dissolved in DMSO (Applichem, Council Bluffs, IA, USA) until a concentration of 1 × 10^−^2 M was obtained; for the subsequent dilution of the substances, a serum-free culture medium was used. The next day, for adhesive cultures, and on the same day, for suspension cultures, substances were added to the plates in a volume of 10 μL (adhesive cultures) and 15 μL (suspension cultures) per well at various concentrations; each concentration was added in 3–4 repetitions. The cells were cultured in the presence of substances for 48 h. Then, MTT reagent (PanEko, Moscow, Russia) was added to the wells at a concentration of 5 mg/mL in a volume of 20 μL per well. After 1.5–2 h, the medium with the reagent was removed, and the precipitate of the crystals of formazan was dissolved in 60 μL of DMSO. The optical density was determined using a Multiskan FC spectrophotometer (Thermo Scientific, Waltham, MA, USA) at a wavelength of 540 nm.
(§3) Based on the results of the experiments, a schedule was plotted of the dependence of the percentage of surviving cells (from control) on the concentration of the compound, and the sought concentration IC50 was calculated. The experiments were carried out in 3–4 times.

[2] = system: NCI-H929; test: MTT cytotoxicity, NCI-H929 multiple myeloma cells; assay type: cell-based; details: Homo sapiens, suspension culture, 48 h
Source text: as §1
(§4) Modifications of cell lines: K562/i-S9 is a clone obtained after transfection of K562 cells with the ABCB1 (MDR1) gene-encoding P-glycoprotein [36]. Cells HBL-100/Dox and K562/i-S9_Dox are cells obtained by long-term selection with increasing concentrations of doxorubicin (Sigma-Aldrich, St. Louis, MO, USA) from HBL-100 and K562/i-S9 cells, respectively. MCF-7, A594 cells, and primary cultures of soft tissue sarcomas were cultured in DMEM medium (PanEko, Russia), PC-3 and HCT-116 cells and all suspension cultures in RPMI1640 medium (PanEko, Russia) supplemented with 10% fetal bovine serum (GE Healthcare LifeSciences, USA), and gentamicin at a concentration of 40 μg/mL at 37 °C and 5% CO2.
as §2, §3

[3] = system: A549; test: MTT cytotoxicity, A549 non-small cell lung cancer cells; assay type: cell-based, human; details: Homo sapiens, A549, adhesive tumor culture, 48 h
Source text: as §1, §4, §2, §3

[4] = system: HCT-116; test: MTT cytotoxicity, HCT-116 colorectal cancer cells; assay type: cell-based, human; details: Homo sapiens, HCT-116, adhesive tumor culture, 48 h
Source text: as §1, §4, §2, §3

[5] = system: CMT № 3 (Epithelial Sarcoma (Metastasis)); test: MTT cytotoxicity, primary culture of soft tissue sarcoma CMT № 3; assay type: cell-based; details: Homo sapiens, 48 h
Source text: (§5) It is believed that such cultures have a molecular profile that corresponds more with cells from the human body, in comparison with that of stable cultures of tumor cells (Table 3).
as §1, §4
as §2, with “Then, MTT reagent (PanEko, Moscow, Russia) was added to the wells at a concentration of 5 mg/mL in a volume of 20 μL per well. After 1.5–2 h, the medium with the reagent was removed, and the precipitate of the crystals of formazan was dissolved in 60 μL of DMSO.” left out
(§6) Based on the results of the experiments, a schedule was plotted of the dependence of the percentage of surviving cells (from control) on the concentration of the compound, and the sought concentration IC50 was calculated. […]

[6] = system: MCF-7; test: MTT cytotoxicity, MCF-7 breast cancer cells; assay type: cell-based; details: Homo sapiens, MCF7, adhesive tumor culture, 48 h
Source text: as §1, §4, §2, §3

[7] = system: THP-1; test: MTT cytotoxicity, THP-1 acute monocytic leukemia cells; assay type: cell-based; details: Homo sapiens, suspension culture, 48 h
Source text: as §1, §4, §2, §3

[8] = system: Jurkat; test: MTT cytotoxicity, Jurkat acute T-cell leukemia cells; assay type: cell-based; details: Homo sapiens, suspension culture, 48 h
Source text: as §1, §4, §2, §3

[9] = system: RPMI8226; test: MTT cytotoxicity, RPMI8226 multiple myeloma cells; assay type: cell-based; details: Homo sapiens, RPMI-8226, suspension culture, 48 h
Source text: as §1, §4, §2, §3

[10] = system: K562; test: MTT cytotoxicity, K562 chronic myeloid leukemia cells; assay type: cell-based; details: Homo sapiens
Source text: as §1, §4, §2, §3

[11] = system: CMT № 2 (Malignant Schwannoma); test: MTT cytotoxicity, primary culture of soft tissue sarcoma CMT № 2; assay type: cell-based; details: Homo sapiens, 48 h
Source text: as §5, §1, §4
as §2, with “Then, MTT reagent (PanEko, Moscow, Russia) was added to the wells at a concentration of 5 mg/mL in a volume of 20 μL per well. After 1.5–2 h, the medium with the reagent was removed, and the precipitate of the crystals of formazan was dissolved in 60 μL of DMSO.” left out
as §6

[12] = system: CMT № 1 (Extraskeletal Ewing’s Sarcoma); test: MTT cytotoxicity, primary culture of soft tissue sarcoma CMT № 1; assay type: cell-based; details: Homo sapiens, 48 h
Source text: as §5, §1, §4
as §2, with “Then, MTT reagent (PanEko, Moscow, Russia) was added to the wells at a concentration of 5 mg/mL in a volume of 20 μL per well. After 1.5–2 h, the medium with the reagent was removed, and the precipitate of the crystals of formazan was dissolved in 60 μL of DMSO.” left out
as §6

[13] = system: PC3; test: MTT cytotoxicity, PC-3 prostate adenocarcinoma cells; assay type: cell-based, human; details: Homo sapiens, PC-3, adhesive tumor culture, 48 h
Source text: as §1, §4, §2, §3

[14] = system: HBL-100; test: MTT cytotoxicity, sensitive HBL-100 cells; assay type: cell-based; details: Homo sapiens, 48 h
Source text: as §1, §2, §3

[15] = system: K562/i-S9; test: MTT cytotoxicity, resistant K562/i-S9 cells (ABCB1 transfected); assay type: cell-based, human
Source text: (§7) At the next stage, the cytotoxic activity of compounds 1, 2, and 9 (Scheme 2) was investigated on several pairs of cell lines that differ in the expression of P-gp and the method by which they were obtained. K562/i-S9 cells are the result of the ABCB1 transfection into K562 cells, which increases P-gp expression, but should not seriously affect other signaling pathways that could lead to drug resistance. K562/i-S9_Dox cells were obtained from K562/i-S9 by selection with low concentrations of doxorubicin to increase P-gp expression. Subline HBL-100/Dox is a derivative of HBL-100 cells, obtained by long-term selection with increasing concentrations of doxorubicin, which led not only to an increase in P-gp expression, but also to a change in the signaling pathways in this subline. Cells of the K562/i-S9_Dox subline express the highest level of P-gp: 94.7% ± 2.3 (p < 0.0001 relative to K562, and p = 0.04 relative to K562/i-S9). In cells of the K562/i-S9 line, the expression of P-gp is 80% ± 8.2 (p < 0.0001 relative to K562). At 0.7% ± 0.5, P-gp is practically not expressed in K562 cells (Figure 1).
as §4, §2, §3

[16] = system: HBL-100/Dox; test: MTT cytotoxicity, resistant HBL-100/Dox cells; assay type: cell-based, human; details: for IC50: Homo sapiens, HBL-100, resistant version, MTT, 48 h
Source text: At the next stage, the cytotoxic activity of compounds 1, 2, and 9 (Scheme 2) was investigated on several pairs of cell lines that differ in the expression of P-gp and the method by which they were obtained. […] K562/i-S9_Dox cells were obtained from K562/i-S9 by selection with low concentrations of doxorubicin to increase P-gp expression.
as §4, §2
The experiments were carried out in 3–4 times.

[17] = system: K562/i-S9_Dox; test: MTT cytotoxicity, resistant K562/i-S9_Dox cells (P-gp overexpression); assay type: cell-based, human
Source text: as §7, §4, §2, §3

[18] = K562, suspension culture, 48 h (Table 2)

SMILES	IC50 [1] [µM]	IC50 [2] [µM]	IC50 [3] [µM]	IC50 [4] [µM]	IC50 [6] [µM]	IC50 [7] [µM]	IC50 [8] [µM]	IC50 [9] [µM]	IC50 [10, 18] [µM]	IC50 [13] [µM]	IC50 [14] [µM]	IC50 [16] [µM]	also measured
C=C1C2=C(C(=O)N1OC)[C@@H](N(C)CCO)[C@@](C)(O)[C@H](CCCCC)O2 [Compound 8, (2S,3R,4R)-3-hydroxy-4-[(2-hydroxyethyl)(methyl)amino]-6-methoxy-3-methyl-7-methylene-2-pentyl-3,4,6,7-tetrahydropyrano[2,3-c]pyrrol-5(2H)-one]	3.8 ± 0.2	0.9 ± 0.3	16.3 ± 0.9	7.5 ± 1	1.8 ± 0.4	1.8 ± 0.2	1 ± 0.3	1.5 ± 0.4	3.4 ± 0.3	3.3 ± 0.6			IC50 [5]: 4.8 ± 0.5 µM; IC50 [11]: 2.3 ± 0.8 µM; IC50 [12]: 3.9 ± 0.8 µM
COc1cccc2c1C(=O)c1c(O)c3c(c(O)c1C2=O)C[C@@](O)(C(=O)CO)C[C@@H]3O[C@H]1C[C@H](N)[C@H](O)[C@H](C)O1 [Doxorubicin, doxorubicin, reference compound]											0.23 ± 0.03	128 ± 7.4	IC50 ([15]; Homo sapiens, K562i/S9, resistant version, ABCB1 transfected, MTT, 48 h): 3.9 ± 1.6 µM; resistance of K562/i-S9 cells relative to K562 ([15]; ratio of IC50 values, Table 4): 11 times; resistance of HBL-100/Dox cells relative to HBL-100 ([16]; ratio of IC50 values, Table 5): 556 times; IC50 ([10]; sensitive K562 cells (Table 4), 48 h): 0.36 ± 0.17 µM; IC50 ([17]; Homo sapiens, K562, resistant version, doxorubicin selected, MTT, 48 h): 10.3 ± 1.2 µM; resistance of K562/i-S9_Dox cells relative to K562 ([17]; ratio of IC50 values, Table 4): 28 times; resistance of K562/i-S9_Dox relative to K562/i-S9 ([17]; ratio of IC50 values, Table 4): 2.6 times
COc1cc([C@@H]2c3cc4c(cc3[C@@H](O[C@@H]3O[C@@H]5CO[C@@H](C)O[C@H]5[C@H](O)[C@H]3O)[C@H]3COC(=O)[C@H]23)OCO4)cc(OC)c1O [Etoposide, etoposide, reference compound]	2 ± 0.5	1.4 ± 0.5	65.3 ± 5.2	21 ± 9.9	8.9 ± 2.3	1.8 ± 0.2	0.9 ± 0.3	7.2 ± 1.9	5.5 ± 3	27.1 ± 3.2	4.7 ± 0.9	111 ± 8.3	
